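Briefly, cells in 96-well plates were exposed to five compound concentrations for 48 h, and endpoints were estimated by linear interpolation. TGI: concentration producing complete growth inhibition.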
What was measured:
Test in all cases: growth of human tumour cells (NCI), 48 h
HCC-2998 colon = tested on: HCC-2998 colon
SNB-19 CNS = tested on: SNB-19 CNS
HCT-116 colon = tested on: HCT-116 colon
SK-OV-3 ovarian = tested on: SK-OV-3 ovarian
MDA-MB-231 breast = tested on: MDA-MB-231 breast
IGROV1 ovarian = tested on: IGROV1 ovarian
HL-60(TB) leukemia = tested on: HL-60(TB) leukemia
CAKI-1 renal = tested on: CAKI-1 renal
SK-MEL-2 melanoma = tested on: SK-MEL-2 melanoma
LOX IMVI melanoma = tested on: LOX IMVI melanoma
TK-10 renal = tested on: TK-10 renal
HT29 colon = tested on: HT29 colon
OVCAR-4 ovarian = tested on: OVCAR-4 ovarian
NCI-H460 lung = tested on: NCI-H460 lung
OVCAR-5 ovarian = tested on: OVCAR-5 ovarian
EKVX NSCLC = tested on: EKVX NSCLC
MOLT-4 leukemia = tested on: MOLT-4 leukemia
NCI/ADR-RES ovarian = tested on: NCI/ADR-RES ovarian
MALME-3M melanoma = tested on: MALME-3M melanoma
SF-268 CNS = tested on: SF-268 CNS
HCT-15 colon = tested on: HCT-15 colon
NCI-H23 lung = tested on: NCI-H23 lung
MDA-N = tested on: MDA-N
UO-31 renal = tested on: UO-31 renal
MCF7 breast = tested on: MCF7 breast
786-0 renal = tested on: 786-0 renal
COLO 205 colon = tested on: COLO 205 colon
HOP-62 NSCLC = tested on: HOP-62 NSCLC
OVCAR-3 ovarian = tested on: OVCAR-3 ovarian
HS 578T breast = tested on: HS 578T breast
K-562 leukemia = tested on: K-562 leukemia
ACHN renal = tested on: ACHN renal
HOP-92 NSCLC = tested on: HOP-92 NSCLC
U251 CNS = tested on: U251 CNS
SK-MEL-5 melanoma = tested on: SK-MEL-5 melanoma
PC-3 prostate = tested on: PC-3 prostate
DU-145 prostate = tested on: DU-145 prostate
SF-539 CNS = tested on: SF-539 CNS
SNB-75 CNS = tested on: SNB-75 CNS
KM12 colon = tested on: KM12 colon
UACC-257 melanoma = tested on: UACC-257 melanoma
A549 NSCLC = tested on: A549 NSCLC
SN12C renal = tested on: SN12C renal
OVCAR-8 ovarian = tested on: OVCAR-8 ovarian
SW-620 colon = tested on: SW-620 colon
M14 melanoma = tested on: M14 melanoma
SF-295 CNS = tested on: SF-295 CNS
T-47D breast = tested on: T-47D breast
SK-MEL-28 melanoma = tested on: SK-MEL-28 melanoma
A498 renal = tested on: A498 renal
SR leukemia = tested on: SR leukemia
NCI-H226 lung = tested on: NCI-H226 lung
CCRF-CEM leukemia = tested on: CCRF-CEM leukemia
NCI-H522 lung = tested on: NCI-H522 lung
RPMI-8226 leukemia = tested on: RPMI-8226 leukemia

Compound: CC1CN=C(N(C)C(=O)Nc2ccc(Cl)cc2)S1 (centres undefined)
- TGI (HCC-2998 colon): > 100 µM
- TGI (SNB-19 CNS): > 100 µM
- TGI (HCT-116 colon): > 100 µM
- TGI (SK-OV-3 ovarian): > 100 µM
- TGI (MDA-MB-231 breast): > 100 µM
- TGI (IGROV1 ovarian): > 100 µM
- TGI (HL-60(TB) leukemia): > 100 µM
- TGI (CAKI-1 renal): > 100 µM
- TGI (SK-MEL-2 melanoma): 37.3 µM
- TGI (LOX IMVI melanoma): > 100 µM
- TGI (TK-10 renal): > 100 µM
- TGI (HT29 colon): > 100 µM
- TGI (OVCAR-4 ovarian): > 100 µM
- TGI (NCI-H460 lung): > 100 µM
- TGI (OVCAR-5 ovarian): 66.4 µM
- TGI (EKVX NSCLC): > 100 µM
- TGI (MOLT-4 leukemia): 44.1 µM
- TGI (NCI/ADR-RES ovarian): 37.5 µM
- TGI (MALME-3M melanoma): > 100 µM
- TGI (SF-268 CNS): > 100 µM
- TGI (HCT-15 colon): > 100 µM
- TGI (NCI-H23 lung): > 100 µM
- TGI (MDA-N): > 100 µM
- TGI (UO-31 renal): 61 µM
- TGI (MCF7 breast): > 100 µM
- TGI (786-0 renal): > 100 µM
- TGI (COLO 205 colon): 80.2 µM
- TGI (HOP-62 NSCLC): > 100 µM
- TGI (OVCAR-3 ovarian): > 100 µM
- TGI (HS 578T breast): > 100 µM
- TGI (K-562 leukemia): > 100 µM
- TGI (ACHN renal): 95.6 µM
- TGI (HOP-92 NSCLC): 68.8 µM
- TGI (U251 CNS): > 100 µM
- TGI (SK-MEL-5 melanoma): 22 µM
- TGI (PC-3 prostate): > 100 µM
- TGI (DU-145 prostate): > 100 µM
- TGI (SF-539 CNS): 30.8 µM
- TGI (SNB-75 CNS): > 100 µM
- TGI (KM12 colon): > 100 µM
- TGI (UACC-257 melanoma): 35.5 µM
- TGI (A549 NSCLC): > 100 µM
- TGI (SN12C renal): > 100 µM
- TGI (OVCAR-8 ovarian): > 100 µM
- TGI (SW-620 colon): > 100 µM
- TGI (M14 melanoma): > 100 µM
- TGI (SF-295 CNS): > 100 µM
- TGI (T-47D breast): 65.6 µM
- TGI (SK-MEL-28 melanoma): 41.8 µM
- TGI (A498 renal): > 100 µM
- TGI (SR leukemia): 92.2 µM

Compound: CCP(=S)(CC)CCl
- TGI (HCC-2998 colon): > 100 µM
- TGI (SNB-19 CNS): > 100 µM
- TGI (HCT-116 colon): > 100 µM
- TGI (SK-OV-3 ovarian): > 100 µM
- TGI (MDA-MB-231 breast): > 100 µM
- TGI (IGROV1 ovarian): > 100 µM
- TGI (HL-60(TB) leukemia): > 100 µM
- TGI (CAKI-1 renal): > 100 µM
- TGI (SK-MEL-2 melanoma): > 100 µM
- TGI (LOX IMVI melanoma): > 100 µM
- TGI (TK-10 renal): > 100 µM
- TGI (HT29 colon): > 100 µM
- TGI (NCI-H226 lung): > 100 µM
- TGI (OVCAR-4 ovarian): > 100 µM
- TGI (NCI-H460 lung): > 100 µM
- TGI (OVCAR-5 ovarian): > 100 µM
- TGI (NCI/ADR-RES ovarian): > 100 µM
- TGI (HCT-15 colon): > 100 µM
- TGI (NCI-H23 lung): > 100 µM
- TGI (MDA-N): > 100 µM
- TGI (UO-31 renal): > 100 µM
- TGI (CCRF-CEM leukemia): > 100 µM
- TGI (MCF7 breast): > 100 µM
- TGI (NCI-H522 lung): > 100 µM
- TGI (COLO 205 colon): > 100 µM
- TGI (HOP-62 NSCLC): > 100 µM
- TGI (OVCAR-3 ovarian): > 100 µM
- TGI (HS 578T breast): > 100 µM
- TGI (K-562 leukemia): > 100 µM
- TGI (ACHN renal): > 100 µM
- TGI (HOP-92 NSCLC): > 100 µM
- TGI (U251 CNS): > 100 µM
- TGI (SK-MEL-5 melanoma): > 100 µM
- TGI (PC-3 prostate): > 100 µM
- TGI (DU-145 prostate): > 100 µM
- TGI (SNB-75 CNS): > 100 µM
- TGI (UACC-257 melanoma): > 100 µM
- TGI (A549 NSCLC): > 100 µM
- TGI (SN12C renal): > 100 µM
- TGI (OVCAR-8 ovarian): > 100 µM
- TGI (SW-620 colon): > 100 µM
- TGI (M14 melanoma): > 100 µM
- TGI (SF-295 CNS): > 100 µM
- TGI (T-47D breast): > 100 µM
- TGI (RPMI-8226 leukemia): > 100 µM
- TGI (SK-MEL-28 melanoma): > 100 µM
- TGI (SR leukemia): > 100 µM

Compound: O=[N+]([O-])c1ccc2nc3n(c2c1)C(c1c(F)cccc1F)SC3 (centres undefined)
- TGI (SNB-19 CNS): > 100 µM
- TGI (HCT-116 colon): > 100 µM
- TGI (SK-OV-3 ovarian): > 100 µM
- TGI (MDA-MB-231 breast): > 100 µM
- TGI (IGROV1 ovarian): > 100 µM
- TGI (LOX IMVI melanoma): > 100 µM
- TGI (TK-10 renal): > 100 µM
- TGI (HT29 colon): > 100 µM
- TGI (NCI-H226 lung): > 100 µM
- TGI (NCI-H460 lung): > 100 µM
- TGI (OVCAR-5 ovarian): > 100 µM
- TGI (EKVX NSCLC): > 100 µM
- TGI (MOLT-4 leukemia): > 100 µM
- TGI (NCI/ADR-RES ovarian): > 100 µM
- TGI (MALME-3M melanoma): > 100 µM
- TGI (NCI-H23 lung): > 100 µM
- TGI (MDA-N): > 100 µM
- TGI (CCRF-CEM leukemia): > 100 µM
- TGI (MCF7 breast): > 100 µM
- TGI (786-0 renal): > 100 µM
- TGI (HOP-62 NSCLC): > 100 µM
- TGI (OVCAR-3 ovarian): > 100 µM
- TGI (HS 578T breast): > 100 µM
- TGI (K-562 leukemia): > 10 µM
- TGI (ACHN renal): > 100 µM
- TGI (U251 CNS): > 100 µM
- TGI (SK-MEL-5 melanoma): > 10 µM
- TGI (PC-3 prostate): > 100 µM
- TGI (DU-145 prostate): > 100 µM
- TGI (KM12 colon): > 100 µM
- TGI (UACC-257 melanoma): > 100 µM
- TGI (A549 NSCLC): > 10 µM
- TGI (SN12C renal): > 100 µM
- TGI (OVCAR-8 ovarian): > 10 µM
- TGI (SW-620 colon): > 100 µM
- TGI (SF-295 CNS): > 100 µM
- TGI (T-47D breast): > 10 µM
- TGI (RPMI-8226 leukemia): > 10 µM
- TGI (SK-MEL-28 melanoma): > 100 µM
- TGI (A498 renal): > 100 µM
- TGI (SR leukemia): > 100 µM

Reference: PubChem BioAssay (NCI)
